Measurements published in publication PMC4010227 (Journal of computer-aided molecular design, 2010).

Biological target: F508del-CFTR (Homo sapiens, UniProt P13569, DEL508-508)
Assay: Ussing chamber short-circuit current, acute cumulative dose response
Assay type: cell-based

EPX-108380 was tested, and the EC50 was under 1 µM.
